# Experiments:
# [1] = test system: lipid levels, Ki67, Insig1 pS207/Insig2 pS151; experiment: Oil Red O and IHC of tumors from high-fat diet mice; format: in vivo, nude mice; settings: orthotopic Huh7, high-fat diet, IHC; semaglutide 30 nmol/kg ip daily and/or LNP peptide 10 mg/kg iv
# Procedure: Figure 5 The Insig1/2 loop 1 peptide in combination with semaglutide treatment induces an additive tumor inhibitor effect. a–c) Huh7 cells were orthotopically injected into the liver of nude mice (n = 7 per group). Treatment groups received intravenous injections of LNP@Insig1/2 loop 1 peptide (10 mg kg^−1, every other day), and/or intraperitoneal injection of Semaglutide (30 nmol kg^−1, daily). (a) Representative optical images of tumors, (b) tumor weights, data are expressed as mean ± SD, statistical significance was determined by one‐way analysis of variance (ANOVA), and (c) survival analysis was performed using Kaplan‐Meier curves. Statistical significance was determined by Log‐rank (Mantel‐Cox) test. d) Cryosections of mouse tumor tissues were prepared, and lipid accumulation was assessed by Oil Red O staining. […] Quantitative analysis of lipid droplet counts (Oil Red O‐positive particles) was performed. Data are expressed as mean ± SD (n = 3). Statistical significance was determined by one‐way analysis of variance (ANOVA). e) Immunohistochemical (IHC) analysis of mouse tumor specimens was performed using the Ki67 antibody. […] Data are expressed as mean ± SD (n = 3). Statistical significance was determined by one‐way analysis of variance (ANOVA). f) Immunohistochemical (IHC) analysis of mouse tumor specimens was performed using the Insig1 pS207/Insig2 pS151 antibody. […]
# [2] = test system: Huh7 cells; experiment: Cell proliferation, Huh7; format: cell-based, human; settings: peptide 25 µM 1 h, IGF1 100 ng/mL 72 h, automated cell counting, n = 3
sequence,measurement,setting,value
RKKRRQRRRLYPCIDSHLGEPHKFKRE [Insig1/2 loop 1 peptide],high-fat diet-enhanced Insig1 S207 and Insig2 S151 phosphorylation in tumors,[1],reduced
same,IGF1-induced increase in proliferation,[2],inhibited

# — paper PMC12677653, “Inhibition of Tumor Lipogenesis and Growth by Peptide‐Based Targeting of SREBP Activation” (Advanced Science, 2025)
